# Tested on: Pseudoperonospora cubensis
# Assay: Fungicidal activity against Pseudoperonospora cubensis in cucumber plant assessed as cucumber downy mildew disease control at 31.3 ppm at 22 +/- 2 degC, 98% RH measured after 10 days
# Assay type: functional
row,Structure (SMILES),Activity [%]
1,CO/N=C(\C#N)C(=O)NC1=NOC(C)C1 (stereo unspecified),70
2,CCO/N=C(\C#N)C(=O)NC1=NOC(C)(C)C1,70
3,CC(C)O/N=C(\C#N)C(=O)NC1=NOC(C)(C)C1,70
4,C=CC1CC(NC(=O)/C(C#N)=N/OC)=NO1 (stereo unspecified),70
5,CO/N=C(\C#N)C(=O)NC1=NOC(CCl)C1 (stereo unspecified),70
6,CO/N=C(\C#N)C(=O)NC1=NOC(C)(CO)C1 (stereo unspecified),70
7,CO/N=C(\C#N)C(=O)NC1=NOC(C)(CCl)C1 (stereo unspecified),70

# Tested on: Pseudoperonospora cubensis
# Assay: Fungicidal activity against Pseudoperonospora cubensis in cucumber plant assessed as cucumber downy mildew disease control at 125 ppm at 22 +/- 2 degC, 98% RH measured after 10 days
# Assay type: functional
row,Structure (SMILES),Activity [%]
1,CO/N=C(\C#N)C(=O)NC1=NOC(CCl)(CCl)C1,70
2,C=CCO/N=C(\C#N)C(=O)NC1=NOC(C)(C)C1,70
3,COCO/N=C(\C#N)C(=O)NC1=NOC(C)(C)C1,70
4,CO/N=C(\C#N)C(=O)Nc1cc(C)on1,70
5,CO/N=C(\C#N)C(=O)NC(=O)OC(C)C,70
6,CO/N=C(\C#N)C(=O)NC1=NOCC1,70
7,CO/N=C(\C#N)C(=O)NC1=NOCC1C (stereo unspecified),70
8,CCC1CC(NC(=O)/C(C#N)=N/OC)=NO1 (stereo unspecified),70
9,CO/N=C(\C#N)C(=O)NC1=NOC(C(C)C)C1 (stereo unspecified),70
10,CCCCC1CC(NC(=O)/C(C#N)=N/OC)=NO1 (stereo unspecified),70
11,CO/N=C(\C#N)C(=O)NC1=NOC(CO)C1 (stereo unspecified),70
12,CO/N=C(\C#N)C(=O)NC1=NOC(C)C1C (stereo unspecified),70
13,CCC1(CC)CC(NC(=O)/C(C#N)=N/OC)=NO1,70
14,CCC1(C)CC(NC(=O)/C(C#N)=N/OC)=NO1 (stereo unspecified),70
15,CCCC1(C)CC(NC(=O)/C(C#N)=N/OC)=NO1 (stereo unspecified),70
16,CO/N=C(\C#N)C(=O)NC1=NOC(C(C)(C)C)C1 (stereo unspecified),70
17,CO/N=C(\C#N)C(=O)NC(=O)OC(C)(C)C,70

# Tested on: Pseudoperonospora cubensis
# Assay: Fungicidal activity against Pseudoperonospora cubensis in cucumber plant assessed as cucumber downy mildew disease control at 7.8 ppm at 22 +/- 2 degC, 98% RH measured after 10 days
# Assay type: functional
row,Structure (SMILES),Activity [%]
1,CO/N=C(\C#N)C(=O)NC1=NOC(C)(C)C1,70

# Tested on: Pseudoperonospora cubensis
# Assay: Fungicidal activity against Pseudoperonospora cubensis in cucumber plant assessed as cucumber downy mildew disease control at 500 ppm at 22 +/- 2 degC, 98% RH measured after 10 days
# Assay type: functional
row,Structure (SMILES),Activity [%]
1,CO/N=C(\C#N)C(=O)NC1=NOC(c2ccccc2)C1 (stereo unspecified),<70
2,CO/N=C(\C#N)C(=O)NC1=NOC(C)(C)C1C (stereo unspecified),70
3,CC1(C)CC(NC(=O)/C(C#N)=N/OCC#N)=NO1,<70
4,CC1(C)CC(NC(=O)/C(C#N)=N/OCc2ccccc2)=NO1,<70
5,CO/N=C(\C#N)C(=O)N(C)C1=NOC(C)(C)C1,<70
6,CCN(C(=O)/C(C#N)=N/OC)C1=NOC(C)(C)C1,<70
7,CO/N=C(\C#N)C(=O)N(CC(=O)OC)C1=NOC(C)(C)C1,<70
8,COCN(C(=O)/C(C#N)=N/OC)C1=NOC(C)(C)C1,<70
9,CO/N=C(\C#N)C(=O)Nc1cc(C)cs1,<70
10,CO/N=C(\C#N)C(=O)Nc1nnc(C)s1,<70
11,CCOC(=O)NNC(=O)NC(=O)/C(C#N)=N/OC,<70
12,CO/N=C(\C#N)C(=O)NC(=O)NNC(=O)c1ccccc1,<70
13,CO/N=C(\C#N)C(=O)NC(=O)NNS(=O)(=O)c1ccccc1,<70
14,CO/N=C(\C#N)C(=O)NC(=O)OC(C)(C)C(=O)OC,70
15,CO/N=C(\C#N)C(=O)NC(=O)OCC(C)(C)C(=O)OC,<70
16,CO/N=C(\C#N)C(=O)NC(=O)OCC(=O)N(C)c1ccccc1,<70
17,CO/N=C(\C#N)C(=O)NC(=O)ON=C(C)C,70
18,CO/N=C(\C#N)C(=O)NC1=NOC(C2CCCCC2)C1 (stereo unspecified),<70
19,CO/N=C(\C#N)C(=O)NC1=NOC(Cc2ccccc2)C1 (stereo unspecified),<70
20,C=CC1CC(NC(=O)/C(C#N)=N/OC)=NO1 (stereo unspecified),<70
21,CCC1ON=C(NC(=O)/C(C#N)=N/OC)C1CC (stereo unspecified),70
